This passage reports MIC results from patent US5977373A, “Thiadiazolyl and oxadiazolyl phenyl oxazolidinone antibacterial agents” (Pharmacia & Upjohn Company, priority 1998, dated 1999).

Common to all, as to format: cell-based
One assay deals with S. Aureus UC ® 9213. Description: In vitro minimum inhibitory concentration (MIC) by agar dilution, gram-positive bacteria (Table 1). As to conditions: Staphylococcus aureus, UC9213. The method, boiled down: (§1)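 MIC determined by agar dilution following NCCLS standard methods for aerobically growing bacteria (1983).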
(In agar dilution the substance is mixed into plates at graded concentrations.)

A further assay relates to S. pneumoniae UC ® 9912. The assay is described as above. The note with it: Streptococcus pneumoniae, UC9912. Put shortly: as §1
Another assay relates to HI 30063. Description: MIC for a gram negative bacterial strain (Table 2). As to conditions: gram negative bacterial strain HI 30063.

Values after ≈ are worked out from the molar mass of the structure shown. A value given as a limit tells only on which side of the number the result lay.

`CC(=O)NC[C@H]1CN(c2ccc(-c3nnc(CCC(C)=NO)s3)c(F)c2)C(=O)O1` [Example 63, (S)-N-[[3-[3-Fluoro-4-[5-[3-(hydroxyimino)butyl]-1,3,4-thiadiazol-2-yl]phenyl]-2-oxo-5-oxazolidinyl]methyl]acetamide]: the MIC (as a rule, the lowest concentration that inhibits growth of the organism) with S. Aureus UC ® 9213 is 2 µg/mL (≈ 4.75 µM); against S. pneumoniae UC ® 9912 it was less than 0.125 µg/mL; in the assay with HI 30063, 4 µg/mL (≈ 9.49 µM).

Regarding `CC(=O)NC[C@H]1CN(c2ccc(-c3nnc(CC=NO)s3)c(F)c2)C(=O)O1` [Example 64, (S)-N-[[3-[3-Fluoro-4-[5-[2-(hydroxyimino)ethyl]-1,3,4-thiadiazol-2-yl]phenyl]-2-oxo-5-oxazolidinyl]methyl]acetamide], the MIC is 1 µg/mL (≈ 2.54 µM) in the assay with S. Aureus UC ® 9213, less than 0.125 µg/mL in the assay with S. pneumoniae UC ® 9912 and 2 µg/mL (≈ 5.08 µM) with HI 30063.

Regarding `CC(=O)NC[C@H]1CN(c2ccc(-c3nnc(CCS(C)(=O)=O)s3)c(F)c2)C(=O)O1` [Example 70, (S)-N-[[3-[3-Fluoro-4-[5-[2-(methylsulfonyl)ethyl]-1,3,4-thiadiazol-2-yl]phenyl]-2-oxo-5-oxazolidinyl]methyl]acetamide], the values for the MIC against S. Aureus UC ® 9213, in the assay on S. pneumoniae UC ® 9912 and against HI 30063 were 4 µg/mL (≈ 9.04 µM), less than 0.5 µg/mL and 4 µg/mL (≈ 9.04 µM), respectively.

For the compound `CCC(=O)NC[C@H]1CN(c2ccc(-c3nncs3)c(F)c2)C(=O)O1` [Example 71, (S)-N-[[3-[3-Fluoro-4-(1,3,4-thiadiazol-2-yl)phenyl]-2-oxo-5-oxazolidinyl]methyl]propanamide], the results for the MIC against S. Aureus UC ® 9213, in the assay with S. pneumoniae UC ® 9912 and against HI 30063 were 1 µg/mL (≈ 2.85 µM), 0.25 µg/mL (≈ 0.714 µM) and 4 µg/mL (≈ 11.4 µM), respectively.

On to `CC(=S)NC[C@H]1CN(c2ccc(-c3nncs3)c(F)c2)C(=O)O1` [Example 74, (S)-N-[[3-[3-Fluoro-4-(1,3,4-thiadiazol-2-yl)phenyl]-2-oxo-5-oxazolidinyl]methyl]ethanethioamide], for which the MIC with S. Aureus UC ® 9213 was 0.25 µg/mL (≈ 0.709 µM); against S. pneumoniae UC ® 9912 it was less than 0.125 µg/mL; with HI 30063, 1 µg/mL (≈ 2.84 µM).

With `NC(=S)NC[C@H]1CN(c2ccc(-c3nncs3)c(F)c2)C(=O)O1` [Example 75, (S)-[[3-[3-Fluoro-4-(1,3,4-thiadiazol-2-yl)phenyl]-2-oxo-5-oxazolidinyl]methyl]thiourea], the MIC with S. Aureus UC ® 9213 was 0.25 µg/mL (≈ 0.707 µM); with S. pneumoniae UC ® 9912 it was less than 0.125 µg/mL; against HI 30063, 1 µg/mL (≈ 2.83 µM).

In the case of `CCC(=S)NC[C@H]1CN(c2ccc(-c3nncs3)c(F)c2)C(=O)O1` [Example 76, (S)-N-[[3-[3-Fluoro-4-(1,3,4-thiadiazol-2-yl)phenyl]-2-oxo-5-oxazolidinyl]methyl]propanethioamide], the MIC against S. Aureus UC ® 9213 is 0.25 µg/mL (≈ 0.682 µM); against S. pneumoniae UC ® 9912 it was less than 0.125 µg/mL; in the assay on HI 30063, 1 µg/mL (≈ 2.73 µM).

On to `CC(=S)NC[C@H]1CN(c2ccc(-c3nnc(CN)s3)c(F)c2)C(=O)O1` [Example 77, N-[((5S)-3-{4-[5-(aminomethyl)-1,3,4-thiadiazol-2-yl]-3-fluorophenyl}-2-oxo-1,3-oxazolidin-5-yl)methyl]ethanethioamide], for which the MIC against S. Aureus UC ® 9213, against S. pneumoniae UC ® 9912 and in the assay on HI 30063 was less than 0.5 µg/mL in each case.

On to `CC(=O)OCC(=O)NCc1nnc(-c2ccc(N3C[C@H](CNC(C)=S)OC3=O)cc2F)s1` [Example 78, 2-({[5-(4-{(5S)-5-[(ethanethioylamino)methyl]-2-oxo-1,3-oxazolidin-3-yl}-2-fluorophenyl)-1,3,4-thiadiazol-2-yl]methyl}amino)-2-oxoethyl acetate], for which the results for the MIC in the assay on S. Aureus UC ® 9213, with S. pneumoniae UC ® 9912 and against HI 30063 were 2 µg/mL, less than 0.5 µg/mL and 4 µg/mL, respectively.
